Key:
[1] = system: Abeta in extract of post-mortem human AD brain tissue; experiment: BAS: human brain amyloid solubilization assay; assay type: biochemical; conditions: max effect across the concentration range, referenced to baseline PBS
Procedure: Assay 5. Human Brain Amyloid Solubilization Assay
This assay was performed in order to assess the ability of a test compound to mobilise Aβ, as an example form of amyloid, from the insoluble to the soluble phase of an extract of tissue from post mortem human AD brain.
Up to 0.5 g of plaque-bearing cortex without meninges was homogenized using a DIAX 900 homogenizer (Hendolph and Co, Kelheim, Germany) or other suitable device for three 30-second periods at full speed in 2 ml of ice-cold phosphate-buffered saline, pH 7.4. To obtain the phosphate-buffered saline-extractable fraction, the homogenate was centrifuged at 100,000×g for 30 min and the supernatant removed. Alternatively, the tissue was freeze dried then pulverized to form a powder which was then weighed out into aliquots for extraction as above. Supernatant, either freeze-dried and resuspended or in unconcentrated form, was dissolved in 200 μl of Tris-Tricine sodium dodecyl sulfate (SDS) sample buffer pH 8.3 containing 8% SDS, 10% 2-mercaptoethanol. Aliquots (10 μl) were then boiled for 10 minutes before SDS-polyacrylamide gel electrophoresis. The insoluble fraction of the cortical samples was obtained by resuspending the initial pelleted sample in 1 ml of phosphate-buffered saline, A 50-μl aliquot of this suspension was then boiled in […] of sample buffer as above.
Tris-Tricine polyacrylamide gel electrophoresis was performed by loading appropriately diluted samples on to 10% to 20% gradient gels (Novex, San Diego, Calif.) followed by transfer on to 0.2-μm nitrocellulose membrane (Bio-Rad, Hercules, Calif.). Aβ was detected by using monoclonal antibody W02, which detects residues 5 through 8, […] (or another suitable antibody) in conjunction with horseradish peroxidase-conjugated rabbit anti-mouse IgG (Dako, Denmark), and visualized by using enhanced chemiluminescence (eg ECL; Amersham Life Science, Buckinghamshire, UK). Each gel included three lanes containing 0.5, 1, and 2 ng of synthetic Aβ40 (Keck Laboratory, Yale University, New Haven, Conn.) as reference standards.
Blot films were scanned by using a suitable imaging system such as the UVP gel documentation system, and densitometry performed using suitable software, eg UVP Labworks. The dynamic range of the film/scanner was determined by using a step tablet (No. 911ST600, Kodak, Rochester N.Y.), a calibrated film exposed by the manufacturer to provided steps of known increasing intensity. The quantifiable range of signal intensity for densitometric analysis of the mono- and dimeric Aβ bands was based on the comparison with a curve obtained by scanning and densitometry of the step tablet.
All samples were analyzed at least twice, and gel loadings and dilutions were adjusted to fit within the quantifiable region of the standard curve. The proportion of ‘soluble’ to ‘insoluble’ Aβ may be used to determine the efficiency of extraction of a test compound compared with the efficiency of a known compound. The insoluble Aβ being comprised of the pelletable fraction derived from the insoluble amyloid plaque from the above cortical samples and the soluble fraction comprising monomeric and/or oligomeric soluble Aβ.

Aβ 1-42 = biological target: T1, Aβ 1-42 (Homo sapiens, UniProt P05067); experiment: Fluorometric H2O2 assay (inhibition of Abeta H2O2 production); assay type: biochemical; conditions: concentration required to inhibit 50% of Abeta H2O2 production; read-out: H2O2 IC50
T1 construct: The reaction solutions contained Aβ 1-42 at concentrations
T1 sequence (P05067 672-713 limits assumed): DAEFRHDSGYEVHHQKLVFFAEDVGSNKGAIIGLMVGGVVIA
Procedure: Assay 1. Fluorometric H2O2 Assay
A fluorometric assay was used to test the ability of a test compound to inhibit hydrogen peroxide generation by Aβ in the presence of copper based on dichlorofluoroscein diacetate (DCF; Molecular Probes, Eugene Oreg.). The DCF solution (5 mM) in 100% dimethyl sulphoxide (previously purged with argon for 2 hr at 20° C.) was deacetylated in the presence of 0.25M NaOH for 30 min and neutralized at pH 7.4 to a final concentration of 1 mM. Horseradish peroxidase (HRP) stock solution was prepared to 1 μM at pH 7.4. The reactions were carried out in PBS, pH 7.4 in a 96 well plate (total volume=250 μl/well). […] The reaction mixture was incubated at 37 C for 60 min. […] H2O2 concentration may be established by comparing fluorescence with the H2O2 standards, Inhibition of Aβ H2O2 production was assayed by including a given concentration of test compound(s) in the test wells.

[2] = system: primary cortical neuronal cultured cells; experiment: Test compound cytotoxicity, MTS assay, primary cortical neuronal cultures; assay type: cell-based, mouse; conditions: for Cytotox (% viable) Neuronal cells at 1 μM: 1 μM test compound; for Cytotox (% viable) Neuronal cells at 10 μM: 10 μM test compound
Procedure: Assay 2. Neurotoxicity Assays
Primary Cortical Neuronal Cultures
Media was then replaced with Neurobasal media (Invitrogen Life Technologies) and B27 supplements (Invitrogen Life Technologies). Cultures were maintained at 37° C. in 5% CO2. Prior to experimentation, the culture medium was replaced with Neurobasal media and B27 minus antioxidants (Invitrogen Life Technologies).
(§1) Assay 3. MTS Assay for Cell Viability
(§2) Cell viability is determined using the MTS assay. Culture medium is replaced with fresh neurobasal medium plus B27 supplements minus antioxidants. 1/10th volume MTS solution (Cell Titre 96 Aqueous One, Promega Corporation) and incubated at 37° C., 2 hrs. 200 microliter aliquots are measured with a spectrophotometer at 560 nm.
Assay 4. Assay for Test Compound Cytoxicity
Neuronal cortical cells were cultured for five days as per Assay 2 in NB media and B27 supplement.
On day six the test compounds were added to the neuronal cell cultures in NB media and B27 supplement minus antioxidants.
Test compounds were dissolved in 100% DMSO to a concentration of 2.5 mM (10 mM if excess compound was weighed out per vial—then diluted to 2.5 mM).
Test compounds were not added directly to cells, instead they were added to a 48 well ‘Drug Plate’ as comprised below:
The Drug Plate was incubated at 37° C. for 15 mins. 200 μl of each well was added in triplicate to the corresponding cell plate. The cell plate was incubated at 37 C, for 4 days.
On completion of the assay, 1/10 volume MTS was added per well of plate (ie 25 μl/250 μl). The plates were incubated at 37 C for 2 hrs, and then absorbance was read at 560 nm.

[3] = biological target: T2, Abeta:Zn (25:50 μM) Synthetic Aggregations (Homo sapiens, UniProt P05067); experiment: Disaggregation of Abeta:Zn synthetic aggregates (ThT fluorescence); assay type: biochemical; conditions: for Disaggregation % Aggregate reduction at 5 μM: 5 μM test compound; for EC50: Abeta:Zn 25:50 μM aggregates
T2 construct: PB Compound Mediated Dissolution of Aggregated Abeta 1-42; purchased Keck Laboratory, Yale University School of Medicine
T2 sequence (P05067 672-713 limits assumed): as above
Procedure: PB Compound Mediated Dissolution of Aggregated Abeta 1-42
Abeta1-42, is available from the Keck Laboratory, Yale University School of Medicine. PBS (pH 6.6): Sigma Cat# D-8662. Zn(ZnCl2): BDH Cat#100884E. (Dissolved in water in 1 mM concentration) DMSO: Ajax Cat#2225. Thioflavin T: Sigma Cat# T-3516. (Dissolved in water in 1 mM concentration)
By way of example of an amyloid composition, Abeta is dissolved in distilled water and peptide concentration is assessed by measured absorption at 214 nm in UV spectrometer. An aggregation reactive mixture (per one concentration of one testing compound) is set us as follows: Abeta: 25 μM, ZnCl2 50 μM, ThT 50 μM, PBS to make up to 500 μl. The tube is wrapped with foil and incubated at 37 degrees by rotation for 24 hours. A serial dilution of each test compound is made up in DMSO, for example: 100 μM, 500 μM, 1000 μM, 2500 μM and 5000 μM. The final concentrations are 1, 5, 10, 25 and 50 μM, 5 μl of each of these compounds is placed in a centrifuge tube and 5 μl of DMSO is added to both negative and positive control tubes. 495 μl of aggregates (after 24 hours incubation) is added to the centrifuge tube. The negative control is PBS plus ZnCl2 and ThT and DMSO. The positive control is aggregates plus DMSO. The tubes are incubated at 37 degrees for further 2 hours with rotation. Samples are measured for ThT fluorescence using an LS55 (Perkin Elmer) fluorimeter in a cuvette (500 μl volume). The excitation wavelength is 450 nm and the emission wavelength is 480 nm. Data are analyzed using graph pad prism program. The tested compounds included so called “PB” compounds.

[4] = system: M17 human neuroblastoma cells; experiment: Cytotoxicity, M17 human neuroblastoma cells; assay type: cell-based; conditions: for Cytotox (% viable) M17 cells at 1 μM: 1 μM test compound; for Cytotox (% viable) M17 cells at 10 μM: 10 μM test compound
Procedure: as §1, §2

Structure (SMILES)	BAS max effect [1] [%]	IC50 (Aβ 1-42) [nM]	Cytotox (% viable) Neuronal cells at 1 μM [2] [%]	Cytotox (% viable) Neuronal cells at 10 μM [2] [%]	Disaggregation % Aggregate reduction at 5 μM [3] [%]	EC50 [3] [nM]	Cytotox (% viable) M17 cells at 1 μM [4] [%]	Cytotox (% viable) M17 cells at 10 μM [4] [%]
O=c1ccnc2c(O)cccn12 [PB 1048]	257							
COC(=O)c1nc(Cl)c2cccnc2c1O [PB 1045]	166							
Oc1cc2cccnc2c2cccnc12 [PB 1026]	186	230						
Cn1cnc2c(O)cccc21 [PB 1041]	319							
COc1cc(NS(=O)(=O)c2ccc(C)cc2)c2ncccc2c1 [PB 116]	220	500	81	60				
Cl.Nc1ccc(O)c2ncccc12 [PB 44]	191	> 10000	108	71				
Cc1cccc(-c2cc(Cl)c3cccnc3c2O)c1 [PB 859]	266	< 670	98	73				
Cc1cnc(NC(=O)c2ccc3cccc(O)c3n2)s1 [PB 953]	325	< 420	94	68				
Oc1cccc2nc3ccccc3nc12 [PB 1027]	306							
CCN(CC)c1ccc2cc(-c3nc4ccccc4s3)c(=O)oc2c1 [PB 981]	580							
Oc1cccc2cc3ccccc3nc12 [PB 1043]	175							
Cc1ccc2c(c1)sc(-c1ccc(N(C)C)cc1)[n+]2C [PB 982]	188							
Oc1c(I)cc(I)c2cccnc12 [PB 46]		400	91	95	58.7	4100		
O=C(NC(=S)Nc1cccc2cccnc12)c1ccccc1 [PB 915]	202	1900						
COC(=O)c1nc(O)c2cccnc2c1O [PB 1046]	244							
OC1=NN=CC2C=CC=NC12 (stereo not drawn) [PB 1044]	212							
O=c1c(-c2ccc(Cl)cc2)cnc2c(O)cccn12 [PB 1069]		480	97	42	34.8	11300	41.2	25.8
CNCc1ccc2c(Cl)cc(Cl)c(O)c2n1.Cl [PB 1104]		350	86	78	19.1	> 20000		
CCn1cnc2c(O)c(Cl)cc(Cl)c2c1=O [PB 1115]		950	93	58	17	> 20000	104.3	95.9
Cc1ccc2nc(-c3ccc(N(C)C)cc3)sc2c1 [PB 983]	278							
Nc1ccccc1NC(=O)c1cc(O)c2cccc(O)c2n1 [PB 986]		3600	98	82	28	18400		
Br.Oc1cccc2c(=S)n(Cc3ccccn3)cnc12 [PB 1113]		3200	97	90	25.5	> 20000		
CCN(CC)Cc1ccc2c(Cl)cc(Cl)c(O)c2n1.Cl [PB 1106]		400	74	70	17.9	14200		
O=c1[nH]cnc2c(O)cccc12 [PB 1049]	237							
CCOC(=O)c1cnc2c(O)c(CC)ncc2c1 [PB 1116]		1630	103	92	16.8	> 20000		
CCCCc1ccc2ccc3ccc(CCCC)nc3c2n1 [PB 847]	271	< 2500						
C1CNCCSCCN1 [PB 942]	220	< 100						
CN(C)c1ccc(/C=C/c2nc3ccccc3s2)cc1 [PB 985]	265							
O=C(O)c1ccccc1Nc1cccc(C(F)(F)F)c1 [PB 233]	330	> 10000						
O=c1c2c(Cl)cc(I)c(O)c2ncn1-c1cccnc1 [PB 1164]		240			26	> 20000	112	111

Reference: patent publication US9163018B2, “Method of treatment of age-related macular degeneration (AMD)” (Prana Biotechnology Limited, priority 2006, dated 2015)
